Measured values reported in publication PMC8245910 (Acta Pharmaceutica Sinica. B, 2021).

Legend:
wild-type TF-1 = test: 2-HG reducing assay in cell; type: cell-based
[1] = SD rats; cited from earlier work
MDR1 = MDR1 (Homo sapiens, UniProt P08183); conditions: cited from earlier work
BCRP = target: T1, BCRP (Homo sapiens, UniProt Q9UNQ0); conditions: cited from earlier work
T1 sequence (Q9UNQ0 1-655): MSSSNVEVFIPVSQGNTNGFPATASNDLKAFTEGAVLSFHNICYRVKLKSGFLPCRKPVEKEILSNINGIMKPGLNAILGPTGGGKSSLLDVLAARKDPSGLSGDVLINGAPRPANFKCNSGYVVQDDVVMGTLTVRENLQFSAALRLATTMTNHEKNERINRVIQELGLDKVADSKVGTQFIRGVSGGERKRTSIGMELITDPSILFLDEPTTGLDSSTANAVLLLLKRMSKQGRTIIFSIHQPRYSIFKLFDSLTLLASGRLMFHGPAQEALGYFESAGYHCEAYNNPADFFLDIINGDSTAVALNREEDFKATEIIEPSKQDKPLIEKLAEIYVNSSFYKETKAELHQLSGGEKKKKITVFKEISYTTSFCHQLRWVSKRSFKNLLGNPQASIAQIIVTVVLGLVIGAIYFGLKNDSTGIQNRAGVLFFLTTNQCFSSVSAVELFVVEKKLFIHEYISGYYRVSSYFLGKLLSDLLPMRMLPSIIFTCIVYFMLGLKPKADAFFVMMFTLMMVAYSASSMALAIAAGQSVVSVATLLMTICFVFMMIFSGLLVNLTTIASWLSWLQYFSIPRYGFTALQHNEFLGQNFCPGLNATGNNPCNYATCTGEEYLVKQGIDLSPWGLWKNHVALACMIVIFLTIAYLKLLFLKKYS

MDR1, sequence (P08183 whole entry): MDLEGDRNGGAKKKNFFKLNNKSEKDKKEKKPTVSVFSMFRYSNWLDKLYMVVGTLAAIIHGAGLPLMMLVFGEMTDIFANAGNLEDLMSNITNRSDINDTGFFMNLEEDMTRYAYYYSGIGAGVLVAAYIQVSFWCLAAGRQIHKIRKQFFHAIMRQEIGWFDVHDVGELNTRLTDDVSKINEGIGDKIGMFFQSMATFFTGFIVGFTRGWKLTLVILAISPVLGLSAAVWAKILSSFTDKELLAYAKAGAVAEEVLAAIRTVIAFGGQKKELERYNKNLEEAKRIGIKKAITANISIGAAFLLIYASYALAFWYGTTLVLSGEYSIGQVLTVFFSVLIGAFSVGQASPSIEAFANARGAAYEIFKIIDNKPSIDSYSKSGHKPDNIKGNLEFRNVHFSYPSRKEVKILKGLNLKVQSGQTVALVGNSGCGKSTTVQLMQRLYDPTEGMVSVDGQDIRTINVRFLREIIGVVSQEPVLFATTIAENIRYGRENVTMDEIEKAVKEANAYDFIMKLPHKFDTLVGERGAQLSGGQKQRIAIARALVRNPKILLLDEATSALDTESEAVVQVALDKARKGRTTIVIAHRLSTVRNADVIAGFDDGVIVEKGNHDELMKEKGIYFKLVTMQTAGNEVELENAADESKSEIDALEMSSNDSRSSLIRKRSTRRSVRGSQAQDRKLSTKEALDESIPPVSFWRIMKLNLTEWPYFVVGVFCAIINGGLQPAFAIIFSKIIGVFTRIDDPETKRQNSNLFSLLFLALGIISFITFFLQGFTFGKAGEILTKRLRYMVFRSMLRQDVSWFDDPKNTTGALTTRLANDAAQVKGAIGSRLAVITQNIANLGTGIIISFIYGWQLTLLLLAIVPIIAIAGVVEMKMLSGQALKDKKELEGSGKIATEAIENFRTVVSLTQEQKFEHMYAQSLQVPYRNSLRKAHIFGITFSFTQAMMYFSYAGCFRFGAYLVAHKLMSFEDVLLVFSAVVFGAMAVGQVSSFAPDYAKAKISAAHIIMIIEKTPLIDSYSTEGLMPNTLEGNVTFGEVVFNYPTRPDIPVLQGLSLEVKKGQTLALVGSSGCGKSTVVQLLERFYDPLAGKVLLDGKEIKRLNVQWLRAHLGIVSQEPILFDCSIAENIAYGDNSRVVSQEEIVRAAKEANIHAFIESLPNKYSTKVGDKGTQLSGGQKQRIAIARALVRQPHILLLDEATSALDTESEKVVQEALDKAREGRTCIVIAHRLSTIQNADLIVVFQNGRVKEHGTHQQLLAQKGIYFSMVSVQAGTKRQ

In the case of CC(C)(O)CNc1nc(Nc2ccnc(C(F)(F)F)c2)nc(-c2cccc(C(F)(F)F)n2)n1 [AG-221, Enasidenib], the “overall concentration of 2-HG” value (wild-type TF-1) is given as “did not change significantly”, the “prototype drug in the excrement, share of the total drugs” value [1] is given as “about 50%” and the “prototype products and metabolites excreted in feces” value [1] is given as over 90%. The “inhibition of MDR1” value (MDR1) was “strong inhibitor” and the “inhibition of BCRP” value (BCRP) was “strong inhibitor”.
